# Values of other authors, collected in patent US5935604A (Danbiosyst UK Limited, priority 1993, dated 1999).
# Key:
# [1] = test system: heart
# [2] = in vivo
# [3] = man, single doses of 1 mg
# [4] = nasal
compound,measurement,setting,value
Cc1ncccc1C1CCCN1C (stereo not shown) [2-methyl nicotine],side-effects on the heart,[1],reduced side-effects on the heart
CN1CCCC1c1cccnc1 (stereo not shown) [nicotine],potential side effects,[2],sleep disturbances and nightmares can result
same,nicotine peak plasma levels,"regular smokers of 15 or more cigarettes per day, daytime average",about 35 μg/l
same,dose of systemically available nicotine absorbed per cigarette,"regular smokers, average",about 1 mg
same,interval between taking a puff and nicotine arriving in the brain,smoking a cigarette,10 to 20 s
same,plasma nicotine level,"two minutes after the first cigarette, 2 min",about 13 μg/l
same,rate of absorption,[3]; nasal,fast
same,time to maximum concentration,[3]; nasal,≤ 10 min
same,differences for different nasal treatments,[3],No differences could be found
Gentamicin,absorption with bioadhesive microsphere system,[4],increase the absorption
